Assay results from US20230391745A1, “SMALL MOLECULE DEGRADERS OF THE BROMODOMAIN AND PHD FINGER TRANSCRIPTION FACTOR” (Regents of the University of Minnesota, priority 2022, published 2023).
Like-named read-outs stand apart in the source and are kept apart here.

Assays:
[1] = target: T1, GST-PCAF and His-tagged CRBN-DDB1 (Homo sapiens, UniProt Q92831+Q96SW2); test: In vitro AlphaScreen ternary complex assay, PCAF; format: binding; settings: His-CRBN-DDB1, varying degrader concentrations
T1 construct: GST-tagged bromodomains (BPTF, BRD9, CECR2 and PCAF) and His-tagged CRBN; purchased Reactive Biology Corp RD-11-259
T1 sequence (Q92831 723-827 limits assumed): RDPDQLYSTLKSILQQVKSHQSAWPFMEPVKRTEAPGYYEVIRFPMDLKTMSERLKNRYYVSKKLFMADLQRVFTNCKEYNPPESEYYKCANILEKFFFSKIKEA
T1 sequence (Q96SW2 40-442 limits assumed): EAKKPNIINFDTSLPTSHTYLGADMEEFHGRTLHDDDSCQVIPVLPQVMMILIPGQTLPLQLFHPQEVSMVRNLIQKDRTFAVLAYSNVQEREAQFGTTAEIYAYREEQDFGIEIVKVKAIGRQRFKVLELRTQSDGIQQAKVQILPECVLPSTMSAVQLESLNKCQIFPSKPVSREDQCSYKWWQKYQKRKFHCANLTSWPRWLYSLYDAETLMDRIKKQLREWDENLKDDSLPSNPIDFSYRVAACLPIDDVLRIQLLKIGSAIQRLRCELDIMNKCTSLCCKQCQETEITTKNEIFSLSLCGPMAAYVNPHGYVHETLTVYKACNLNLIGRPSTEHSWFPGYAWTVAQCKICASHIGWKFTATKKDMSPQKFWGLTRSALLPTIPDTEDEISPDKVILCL
T1 sequence (Q16531 whole entry partner): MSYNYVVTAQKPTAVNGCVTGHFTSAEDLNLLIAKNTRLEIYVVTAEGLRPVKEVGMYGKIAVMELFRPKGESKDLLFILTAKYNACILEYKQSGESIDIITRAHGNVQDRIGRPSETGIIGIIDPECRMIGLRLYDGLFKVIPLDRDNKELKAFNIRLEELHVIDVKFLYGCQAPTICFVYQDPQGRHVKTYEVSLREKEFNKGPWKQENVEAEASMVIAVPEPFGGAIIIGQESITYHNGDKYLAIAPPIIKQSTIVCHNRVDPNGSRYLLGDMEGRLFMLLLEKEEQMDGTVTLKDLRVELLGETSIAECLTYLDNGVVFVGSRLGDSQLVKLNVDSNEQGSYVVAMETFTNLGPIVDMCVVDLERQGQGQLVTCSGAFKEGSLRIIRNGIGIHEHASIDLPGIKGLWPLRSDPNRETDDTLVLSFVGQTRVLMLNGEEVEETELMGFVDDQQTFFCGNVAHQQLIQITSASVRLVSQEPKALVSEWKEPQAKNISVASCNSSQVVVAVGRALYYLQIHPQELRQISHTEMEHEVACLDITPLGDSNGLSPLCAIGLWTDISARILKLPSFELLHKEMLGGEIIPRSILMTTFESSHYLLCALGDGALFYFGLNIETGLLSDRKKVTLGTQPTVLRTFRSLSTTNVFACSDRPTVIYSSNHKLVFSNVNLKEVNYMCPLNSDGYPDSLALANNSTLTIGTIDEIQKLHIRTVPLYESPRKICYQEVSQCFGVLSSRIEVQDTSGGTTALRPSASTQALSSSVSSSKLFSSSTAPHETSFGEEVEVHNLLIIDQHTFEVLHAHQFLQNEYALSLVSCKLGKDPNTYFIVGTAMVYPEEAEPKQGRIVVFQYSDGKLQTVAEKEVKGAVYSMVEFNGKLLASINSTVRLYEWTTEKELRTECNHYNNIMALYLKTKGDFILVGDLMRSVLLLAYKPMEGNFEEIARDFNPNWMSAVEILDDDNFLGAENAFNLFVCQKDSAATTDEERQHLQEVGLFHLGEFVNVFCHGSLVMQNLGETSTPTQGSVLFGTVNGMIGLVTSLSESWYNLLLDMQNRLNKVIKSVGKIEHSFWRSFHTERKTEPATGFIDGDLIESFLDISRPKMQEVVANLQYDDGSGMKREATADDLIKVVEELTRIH
Procedure: (§1) General procedure for in vitro ternary complex assay. His-tagged CRBN-DDB1 protein was prepared following the procedure reported by Matyskiela et al. GST-BPTF was purchased from BPS Biosciences (cat #31134), while GST-BRD9, GST-CECR2, and GST-PCAF were purchased from Reactive Biology Corp (cat #RD-11-187, cat #RD-11-194, and cat #RD-11-259 respectively). All reagents were diluted in assay buffer comprising 25 mM HEPES, pH 7.4, 100 mM NaCl, 0.1% BSA, and 0.05% tween20. An ECHO 650 (Labcyte Inc.) acoustic dispenser was used to generate a 10-point dilution curve from DMSO stocks of the degraders directly into a 384-well OptiPlate (PerkinElmer, Cat. #6007290) giving a final DMSO concentration of 0.3%. AlphaScreen glutathione coated donor and nickel chelate acceptor beads were purchased from PerkinElmer (Cat. #6765300 and 6760141 respectively).
(§2) Briefly, to a 384-well OptiPlate containing 5× degrader in triplicate was added 5 μL of a 5× solution of His-CRBN-DDB1 and GST-tagged bromodomain and then incubated at rt for 1 h. After incubation, 10 μL nickel chelate acceptor (20 μL/mL final concentration) and 10 μL glutathione donor beads (20 μL/mL final concentration) were added. The plate was sealed and mixed on a MixMate (eppendorf) for 1 h at rt and then luminescence detection was collected on an Envision plate reader (PerkinElmer).
(§3) In vitro ternary complex formation via AlphaScreen. The stability of the ternary complex is critical for degradation by heterobifunctional molecules. A ternary complex formation in vitro using an AlphaScreen-based assay (FIG. 3A) was therefore studied. In this experiment, anti-GST donor beads and nickel acceptor beads were paired with GST-tagged bromodomains (BPTF, BRD9, CECR2 and PCAF) and His-tagged CRBN. The AlphaScreen signal was measured at varying degrader concentrations and the amplitude of the maximum point on the curve was used as an indicator of ternary complex stability.

[2] = target: T2, GST-CECR2 and His-tagged CRBN-DDB1 (Homo sapiens, UniProt Q96SW2+Q9BXF3); test: In vitro AlphaScreen ternary complex assay, CECR2; format: binding; settings: GST-CECR2, His-CRBN-DDB1, varying degrader concentrations
T2 construct: GST-tagged bromodomains (BPTF, BRD9, CECR2 and PCAF) and His-tagged CRBN; purchased Reactive Biology Corp RD-11-194
T2 sequence (Q9BXF3 434-538 limits assumed): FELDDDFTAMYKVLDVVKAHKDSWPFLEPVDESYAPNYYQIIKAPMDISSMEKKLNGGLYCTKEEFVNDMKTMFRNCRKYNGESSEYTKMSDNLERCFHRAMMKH
T2 sequence (Q96SW2 40-442 limits assumed): as the sequence (Q96SW2 40-442 limits assumed) above
T2 sequence (Q16531 whole entry partner): as the sequence (Q16531 whole entry partner) above
Procedure: as §1, §2, §3

BRD9 bromodomain = target: T3, BRD9 bromodomain (Homo sapiens, UniProt Q9H8M2); test: AlphaScreen assay with BRD9 bromodomain and biotinylated histone H4 KAc5,8,12,16 peptide; format: binding
T3 construct: His; purchased Reaction Biology RD-11-214
T3 sequence (Q9H8M2 136-240 limits assumed): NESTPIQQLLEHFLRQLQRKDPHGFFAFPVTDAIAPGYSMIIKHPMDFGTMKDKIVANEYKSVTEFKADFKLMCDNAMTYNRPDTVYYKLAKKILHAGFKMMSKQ

[3] = target: T4, Nluc-BRD9-FL fusion construct (Homo sapiens, UniProt Q96SW2+Q9H8M2); test: Degradation of Nluc-BRD9-FL construct by total donor luminescence; settings: similar conditions as BPTF study (1 μM, 6 h), HEK293T cells
T4 sequence (Q9H8M2 whole entry, the tested form may be a part): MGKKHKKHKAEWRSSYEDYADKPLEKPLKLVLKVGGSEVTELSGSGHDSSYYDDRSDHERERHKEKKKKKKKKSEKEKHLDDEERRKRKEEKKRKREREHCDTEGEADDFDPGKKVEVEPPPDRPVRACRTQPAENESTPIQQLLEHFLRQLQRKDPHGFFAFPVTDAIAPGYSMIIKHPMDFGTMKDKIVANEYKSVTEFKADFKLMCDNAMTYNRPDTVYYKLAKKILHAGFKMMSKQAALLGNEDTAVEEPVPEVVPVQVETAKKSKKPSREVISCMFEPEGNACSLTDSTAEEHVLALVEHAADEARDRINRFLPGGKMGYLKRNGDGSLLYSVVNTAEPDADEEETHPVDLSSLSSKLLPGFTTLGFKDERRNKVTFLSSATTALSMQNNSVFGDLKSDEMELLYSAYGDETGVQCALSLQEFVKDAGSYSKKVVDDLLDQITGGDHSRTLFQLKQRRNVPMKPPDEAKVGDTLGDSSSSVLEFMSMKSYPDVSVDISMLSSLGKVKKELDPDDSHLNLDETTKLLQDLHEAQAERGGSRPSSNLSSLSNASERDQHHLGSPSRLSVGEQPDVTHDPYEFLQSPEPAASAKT
T4 sequence (Q96SW2 whole entry, the tested form may be a part): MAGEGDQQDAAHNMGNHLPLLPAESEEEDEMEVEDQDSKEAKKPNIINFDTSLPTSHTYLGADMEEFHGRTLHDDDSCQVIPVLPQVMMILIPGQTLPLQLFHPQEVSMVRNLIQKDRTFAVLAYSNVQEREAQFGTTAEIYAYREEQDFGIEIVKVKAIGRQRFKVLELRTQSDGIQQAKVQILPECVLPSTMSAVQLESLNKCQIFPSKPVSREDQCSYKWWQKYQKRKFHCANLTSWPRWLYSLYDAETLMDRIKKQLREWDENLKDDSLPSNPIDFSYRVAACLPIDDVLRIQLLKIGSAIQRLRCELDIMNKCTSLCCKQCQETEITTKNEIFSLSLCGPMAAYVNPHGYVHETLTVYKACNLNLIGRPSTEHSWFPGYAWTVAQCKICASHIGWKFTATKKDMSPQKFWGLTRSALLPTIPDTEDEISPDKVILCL
T4 sequence (Q16531 whole entry partner, the tested form may be a part): as the sequence (Q16531 whole entry partner) above
Description: (§4) In-cell ternary complex formation and degradation of full-length BRD9 via NanoBRET. […] Degradation of the Nluc-BRD9-FL construct was monitored under similar conditions as our BPTF study.

BPTF bromodomain = target: T5, BPTF bromodomain (Homo sapiens, UniProt Q12830); test: AlphaScreen assay with BPTF bromodomain and biotinylated histone H4 KAc5,8,12,16 peptide; format: binding; settings: average of two technical replicates with N = 3 unless otherwise indicated, read-out: BPTF BD IC50
T5 construct: His9-tagged BPTF bromodomain was expressed and purified as described previously; His9; made in house
Procedure: General procedure for AlphaScreen assay. His9-tagged BPTF bromodomain was expressed and purified as described previously. […] The AlphaScreen assay procedures were adapted from the manufacturers protocol (PerkinElmer, USA). […] The biotinylated Histone H4 KAc5,8,12,16 peptide was purchased from EpiCypher (Cat. #12-0034), with the sequence:
Ac-SGRGK(Ac)GGK(Ac)GLGK(Ac)GGAK(Ac)RHRKVLR-Peg(Biot).
All reagents were diluted in the assay buffer (50 mM HEPES-Na^+ (ChemImpex), 100 mM NaCl (SigmaAldrich), 0.05% CHAPS (RPI), 0.1% BSA (SigmaAldrich), pH 7.4).
3-fold serial dilutions were prepared with varying concentrations of the compounds and a fixed protein concentration, keeping the final DMSO concentration at 0.25%. […] 5 μL of the biotinylated peptide solution was then added to the wells. 10 μL of pre-mixed nickel chelate acceptor beads and streptavidin donor beads were added to each well under low light conditions (<100 lux), to a final concentration of 20 μg/mL. The plate was sealed and incubated for 30 minutes in the dark. It was then read in AlphaScreen mode (excitation time=100 ms, integration time=300 ms, output: counts/s) using a Tecan Spark plate reader. Each compound was run in two technical replicates and the data was normalized against 0 μM inhibitor signal to obtain the % normalized AlphaScreen signal. IC50 values were calculated in GraphPad Prism 9 using a sigmoidal 4-parameter logistic (4PL) curve fit.
To validate our chosen exit vectors, an AlphaScreen assay was used to measure binding affinity of our degraders with the BPTF bromodomain.

CECR2 bromodomain = target: T6, CECR2 bromodomain (Homo sapiens, UniProt Q9BXF3); test: AlphaScreen assay with CECR2 bromodomain and biotinylated histone H4 KAc5,8,12,16 peptide; format: binding
T6 construct: His; purchased Reaction Biology RD-11-210
T6 sequence (Q9BXF3 434-538 limits assumed): as the sequence (Q9BXF3 434-538 limits assumed) above

[4] = target: T7, Nluc-BPTF-BD fusion construct (Homo sapiens, UniProt Q12830+Q96SW2); test: In-cell NanoBRET CRBN ternary complex assay with Nluc-BPTF-BD; format: cell-based; settings: for BRET ratio, fold increase over DMSO (in-cell ternary complex formation): 1 μM degrader, C-terminal Nluc-BPTF-BD fusion, HEK293T cells; for Ternary complex formation with C-terminal Nluc/BPTF-BD fusion construct / Ternary complex formation with N-terminal Nluc/BPTF-BD fusion construct: 1 μM for 2 h, HEK293T cells pre-treated with MG-132
T7 construct: form ternary complexes with nanoluciferase-fused BPTF bromodomain and full-length BRD9 constructs; expressed in transfected cells; host or cells: HEK293T
T7 sequence (Q16531 whole entry, the tested form may be a part): as the sequence (Q16531 whole entry partner) above
T7 sequence (Q96SW2 whole entry, the tested form may be a part): as the sequence (Q96SW2 whole entry, the tested form may be a part) above
Procedure: In-cell NanoBRET assay. NanoBRET experiments were carried out using the NanoBRET CRBN Ternary Complex Starter Kit (Cat #ND2720) according to the manufacturer's protocol (Promega NanoBRET™ CRBN Ternary Complex Assay TM615).^38 All assays were run in 384-well format. HEK293T cells were transfected to a 1:100 donor:acceptor (Nluc:Halotag vectors) ratio for both BPTF-BD and BRD9-FL vectors (see supporting information for the design of plasmids). Cells were re-plated, treated with the HaloTag 618 Ligand and treated with compounds as described in the manufacturer's procedure.
Cell culture. HEK293T cells were grown in a humidified 5% CO2 environment at 37° C. Cells were cultured in DMEM media (high-glucose, Gibco Cat. #11965-092) supplemented with 10% fetal-bovine serum (Cellgro Cat. #QB-110-001-101), Penicillin-Streptomycin (50 U/mL penicillin, 50 μg/mL streptomycin, Cellgro Cat. #15140-122). The cells were passaged to a 1:20 dilution by decanting suspended cells and dissociating adherent cells from cell culture flasks in 0.25% trypsin/EDTA (Gibco, Cat. #25200056) after 1 min incubation.
In-cell ternary complex formation and degradation of BPTF-BD via NanoBRET. After establishing in vitro ternary complex formation, a NanoBRET ternary complex assay was optimized to rank-order degraders in cells (FIG. 4A). This assay also serves as an indirect indicator of cellular permeability, which is often a major challenge for heterobifunctional degraders. Both N- and C-terminal fusions of Nanoluciferase (Nluc) and BPTF-BD with 11-amino acid linkers were designed. The vectors were transfected into HEK293T cells and compounds 4 and 5 were dosed at 1 μM for 2 h in cells pre-treated with the proteosome inhibitor MG-132. […] The C-terminal Nluc-BPTF-BD fusion construct was therefore used for subsequent experiments. Degraders were tested for ternary complex formation at 1 μM (FIG. 4B).

[5] = target: T4, Nluc-BRD9-FL fusion construct; test: In-cell NanoBRET CRBN ternary complex assay with full-length BRD9; settings: HEK293T cells
Description: as §4

[6] = target: T8, GST-BRD9 and His-tagged CRBN-DDB1 (Homo sapiens, UniProt Q96SW2+Q9H8M2); test: In vitro AlphaScreen ternary complex assay, BRD9; format: binding; settings: GST-BRD9, His-CRBN-DDB1, varying degrader concentrations
T8 construct: GST-tagged bromodomains (BPTF, BRD9, CECR2 and PCAF) and His-tagged CRBN; purchased Reactive Biology Corp RD-11-187
T8 sequence (Q96SW2 40-442 limits assumed, one chain of several): as the sequence (Q96SW2 40-442 limits assumed) above
T8 sequence (Q16531 whole entry partner, one chain of several): as the sequence (Q16531 whole entry partner) above
Procedure: as §1, with “AlphaScreen glutathione coated donor and nickel chelate acceptor beads were purchased from PerkinElmer (Cat. #6765300 and 6760141 respectively).” left out
as §2, with “After incubation, 10 μL nickel chelate acceptor (20 μL/mL final concentration) and 10 μL glutathione donor beads (20 μL/mL final concentration) were added.” left out
In vitro ternary complex formation via AlphaScreen. […] The AlphaScreen signal was measured at varying degrader concentrations and the amplitude of the maximum point on the curve was used as an indicator of ternary complex stability.

[7] = AlphaScreen, average of two technical replicates with N = 2 unless otherwise indicated, read-out: BRD9 BD IC50
[8] = AlphaScreen, average of two technical replicates with N = 2 unless otherwise indicated, read-out: CECR2 BD IC50

Ternary complex formation with PCAF (AlphaScreen signal amplitude) [1]	Ternary complex formation with CECR2 (AlphaScreen signal amplitude) [2]	IC50 (BRD9 bromodomain; [7]) [nM]	IC50 (BPTF bromodomain) [nM]	IC50 (CECR2 bromodomain; [8]) [nM]	BRET ratio, fold increase over DMSO (in-cell ternary complex formation) [4] [fold]	Ternary complex formation with C-terminal Nluc/BPTF-BD fusion construct [4]	Ternary complex formation with N-terminal Nluc/BPTF-BD fusion construct [4]	BRET ratio, fold over DMSO control (in-cell ternary complex formation) [5] [fold]	Ternary complex formation with BRD9 (AlphaScreen signal amplitude) [6]	SMILES	Degradation of the Nluc-BRD9-FL construct [3]	IC50 (BRD9 bromodomain) [nM]	IC50 (CECR2 bromodomain) [nM]
less stable ternary complexes	less stable ternary complexes	63	70 ± 23	225	2.3	showed ternary complex formation	did not	–	–	Cn1ncc(Nc2ccc3c(c2)CCN(CCOCCOCCNC(=O)COc2cccc4c2C(=O)N(C2CCC(=O)NC2=O)C4=O)C3)c(Cl)c1=O (stereo not drawn) [Compound 5, N-(2-(2-(2-(6-((5-chloro-1-methyl-6-oxo-1,6-dihydropyridazin-4-yl)amino)-3,4-dihydroisoquinolin-2(1H)-yl)ethoxy)ethoxy)ethyl)-2-((2-(2,6-dioxopiperidin-3-yl)-1,3-dioxoisoindolin-4-yl)oxy)acetamide]	caused degradation of full-length BRD9, comparable to the dBRD9 control	–	–
promiscuous	promiscuous	98	158 ± 55	485	3.2	showed ternary complex formation	did not	~2	promiscuous	Cn1ncc(Nc2ccc3c(c2)CN(CCCCCCNC(=O)COc2cccc4c2C(=O)N(C2CCC(=O)NC2=O)C4=O)CC3)c(Cl)c1=O (stereo not drawn) [Compound 4, N-(6-(7-((5-chloro-1-methyl-6-oxo-1,6-dihydropyridazin-4-yl)amino)-3,4-dihydroisoquinolin-2(1H)-yl)hexyl)-2-((2-(2,6-dioxopiperidin-3-yl)-1,3-dioxoisoindolin-4-yl)oxy)acetamide]	caused degradation of full-length BRD9, comparable to the dBRD9 control	–	–
–	–	–	430	33	–	–	–	–	–	CN(C)CCCOc1ccc(-c2cc(NCCCn3cccn3)nc(S(C)(=O)=O)n2)cc1 [Compound 7, TP-238, reference compound]	–	–	–
–	–	300	–	1300	–	–	–	–	–	Cn1ncc(Nc2ccc3c(c2)CNCC3)c(Cl)c1=O [Compound 2]	–	–	–
less stable ternary complexes	less stable ternary complexes	18	121 ± 38	1460	1.6	–	–	–	–	Cn1ncc(Nc2ccc3c(c2)CN(CCOCCOCCNC(=O)COc2cccc4c2C(=O)N(C2CCC(=O)NC2=O)C4=O)CC3)c(Cl)c1=O (stereo not drawn) [Compound 6, N-(2-(2-(2-(7-((5-chloro-1-methyl-6-oxo-1,6-dihydropyridazin-4-yl)amino)-3,4-dihydroisoquinolin-2(1H)-yl)ethoxy)ethoxy)ethyl)-2-((2-(2,6-dioxopiperidin-3-yl)-1,3-dioxoisoindolin-4-yl)oxy)acetamide]	–	–	–
drop in signal	drop in signal	21	24 ± 9	53	3.5	–	–	–	drop in signal	Cn1ncc(Nc2ccc3c(c2)CCN(CCCCCCNC(=O)COc2cccc4c2C(=O)N(C2CCC(=O)NC2=O)C4=O)C3)c(Cl)c1=O (stereo not drawn) [Compound 3]	–	–	–
–	–	–	–	–	–	–	–	–	–	Cn1ncc(Nc2ccc3c(c2)CCNC3)c(Cl)c1=O [Compound 1]	–	556	1670
